Common to all, as to type: cell-based, human
In assay [1] the test system is peritoneal macrophages. Nature of the assay: Degree of differentiation and activation of peritoneal macrophages (CD15, CD11c, CD69, CD71 cytofluorimetry). As to conditions: Control = 1.0; after 6 days of incubation; α-lipoic acid 50 μM, ambroxol 10 μM, enalapril 5 μM, captopril 10 μM. The method, then: Peritoneal macrophages were isolated from patients during renal replacement therapy using the method described in Example 3 and cultivated in the presence of the combinations of α-lipoic acid and effectors of the glutathione metabolism according to the invention. After 6 days of incubation, the degree of differentiation of the peritoneal macrophages was determined by means of the expression of the cell surface antigens CD15 and CD11c, and the degree of cellular activation was determined using cytofluorimetry by means of the co-expression of the activation antigens CD69 to CD15-positive cells and CD71 to […] cells.

Assay [2] deals with peritoneal macrophages. Description: Phagocytosis capacity of peritoneal macrophages (cytofluorimetric test with opsonized fluorochrome-marked bacteria). As to conditions: treatment time of 6 days. The method, then:
Peritoneal macrophages were isolated using a method analogous to the method described in Example 3 and cultivated ex vivo. The phagocytosis capacity was determined by a cytofluorimetric test on the single-cell level. The macrophages were thereby co-cultivated with opsonized and fluorochrome-marked bacteria. The number of bacteria absorbed during a defined period was determined quantitatively by means of the fluorescence intensity in the macrophages and was used as a measurement for their phagocytosis capacity. The influence of the combinations used according to the invention on the phagocytosis capacity of the peritoneal macrophages after a treatment time of 6 days is presented in the following table.

The subject of another assay is T-lymphocytes. Nature of the assay: Activation markers CD69, CD25, CD71 of PHA-stimulated T-lymphocytes (activation index). The note with it: thiol-deficient cells, 1.0 μg/ml phytohemagglutinin, culture time 72 hours; normal = 1.0. As for the experimental part:
In the cultivation experiment described with reference to Example 1, human T-lymphocytes were stimulated with 1.0 μg/ml phytohemagglutinin. In a culture time of 72 hours, specific markers of the cellular activation were quantitatively detected using cytofluorimetery by means of monoclonal antibodies. The influence of the combinations used according to the invention on the activation markers CD69 (early activation antigen), CD25 (intermediate activation antigen) and CD71 (late activation antigen) of T-lymphocytes was measured. […] It can thus be concluded that the normalization of the cellular thiol status achieved by the combined use of α-lipoic acid and the respective effectors of the glutathione metabolism is accompanied by a restitution of cell function.

For assay [3], the system named is peritoneal macrophages. Nature of the assay: Degree of differentiation and activation of peritoneal macrophages (CD15, CD11c, CD69, CD71 cytofluorimetry). The note with it: Control = 1.0; after 6 days of incubation; α-lipoic acid 50 μM, ambroxol 10 μM, enalapril 5 μM, captopril 10 μM. This is another data set of the same source.
Assay [4] relates to peritoneal macrophages. Nature of the assay: Intracellular thiol expression of peritoneal macrophages from peritoneal dialysis patients. The note with it: time kinetic over 14 days. As for the experimental part: Peritoneal macrophages were isolated from the effluate of peritoneal dialysis of patients with a high degree of renal insufficiency, absorbed in a cell culture medium and incubated in a gasifying incubation cabinet at 37° C., a relative humidity of 98% and 7.5% relative air-CO2 content. To investigate the influence of the combinations used according to the invention on the thiol status of the peritoneal macrophages, individual fractions were treated with α-lipoic acid, the effectors of the glutathione metabolism ambroxol or the ACE inhibitor enalapril and with the combination of α-lipoic acid/ambroxol or α-lipoic acid/enalapril, while an additional fraction was maintained as an untreated control. The cellular thiol status was determined using the measurement methods described in Example 1. FIG. 4 illustrates the effect of the combination of α-lipoic acid and ambroxol (FIG. 4a) and α-lipoic acid and enalapril (FIG. 4b) in a time kinetic over 14 days […].

The subject of assay [5] is lymphocytes (peripheral immune cells). Description: Membrane-bound thiol expression of thiol-depleted peripheral immune cells (CMTMR flow cytofluorimetry). The note with it: α-lipoic acid 50 μM, captopril 10 μM, combination at the same concentrations. The method, then: Peripheral immune cells from healthy donors (n=9) were isolated from the peripheral blood. The major fraction of the resulting total population of mononuclear cells regularly represents lymphocytes with a relative percentage of approximately 90%, depending on the donor. 10% of the mononuclear cells are represented by monocytes. The mononuclear cells obtained were absorbed in special cell culture media and incubated in a gasifying incubation cabinet at 37° C., a relative humidity of 98% and 5% relative air-CO2 content. […] To test the influence of the combinations used according to the invention on the thiol status of thiol-deficient immune cells, these cells were artificially thiol-depleted. This process was carried out using proven methods by cultivation in thiol-deficient media (RPMI 1603). Comparative cultures using complete media (RPMI) 1640) were used to define the best possible normal value under the culture conditions. The expression of membrane-bound thiol groups was also determined using flow cytofluorimetry. In this case, chloromethyltetramethyl rhodamine (CMTMR) was used as thiol conjugate under the conditions of a blocked membrane potential and an inhibited diffusion capacity of the cells. The fluorescence intensity of the fluorochrome molecules bound to the cell membrane is in turn proportional to the number of thiol groups on the cell surface. The results obtained with this experimental investigation of the influence of the combinations according to the invention on the expression of cell membrane bound thiols are presented in FIG. 2 for the combinations of α-lipoic acid and ambroxol (FIG. 2a) and α-lipoic acid and enalapril (FIG. 2b). The following table presents the results for the combination of α-lipoic acid and captopril.

Structures can show the parent of a compound that is named as a salt.

Turning to `CCOC(=O)[C@H](CCc1ccccc1)NC(C)C(=O)N1CCCC1C(=O)O` (stereo in doubt) [Enalapril, 1-{N-[(S)-1-ethoxycarbonyl-3-phenylpropyl]-L-alanyl}-L-prolin], in the assay on peritoneal macrophages [1], the CD11c expression was found to be 1.23 ± 0.22, the CD15/69 co-expression was 1.19 ± 0.12 and the CD15 expression was 1.21 ± 0.22. Also, the “Phagocytosis rate higher than that of the untreated control by a factor of” value in the assay on peritoneal macrophages [2] worked out at 1.53. Further, the “Effect on the activation index of T-lymphocytes (CD69, CD25, CD71; in words)” value in the assay on T-lymphocytes is on record as “equivalent to α-lipoic acid only in the case of the effectuation of the CD25 antigen”. The CD11c/71 co-expression in the assay on peritoneal macrophages [3] amounted to 1.10 ± 0.14.

Consider `Nc1c(Br)cc(Br)cc1CNC1CCC(O)CC1` (centres unmarked) [Ambroxol, hydrochloride], for which, in the assay on peritoneal macrophages [1], the CD11c expression turned out to be 1.01 ± 0.09 and the CD15 expression was determined as 0.98 ± 0.13. In the assay on peritoneal macrophages [2], the “Phagocytosis rate higher than that of the untreated control by a factor of” value is on record as 1.35. In addition, the “Effect on the activation index of T-lymphocytes (CD69, CD25, CD71; in words)” value with T-lymphocytes is given as “does not have any influence on one of the three activation markers”. Further, the CD11c/71 co-expression in the assay with peritoneal macrophages [3] came out at 0.96 ± 0.1. Further, in the assay on peritoneal macrophages [4], the “Effect on cellular thiol expression of peritoneal macrophages (in words)” value is recorded as “had no effect”.

Turning to `C[C@H](CS)C(=O)N1CCC[C@H]1C(=O)O` [Captopril, 1-[(2S)-3-mercapto-2-methylpropionyl]-L-prolin], the CD11c expression in the assay with peritoneal macrophages [1] amounted to 1.26 ± 0.24. Besides, the CD15/69 co-expression in the assay on peritoneal macrophages [1] came out at 1.69 ± 0.21. The CD15 expression with peritoneal macrophages [1] stood at 1.19 ± 0.14. Moreover, the Membrane-resistant thiol expression was 2.37 ± 0.45 mfiBeads/Ratio in assay [5] (length of culture 0 d); 2.63 ± 0.39 mfiBeads/Ratio in assay [5] (length of culture 1 d); 2.54 ± 0.41 mfiBeads/Ratio in assay [5] (length of culture 2 d); 2.52 ± 0.38 mfiBeads/Ratio in assay [5] (length of culture 3 d); 2.50 ± 0.41 mfiBeads/Ratio in assay [5] (length of culture 4 d); 2.46 ± 0.50 mfiBeads/Ratio in assay [5] (length of culture 6 d). Further, the Membrane-resistant thiol expression in assay [5] (length of culture 8 d) was 2.01 ± 0.39 mfiBeads/Ratio; in assay [5] (length of culture 10 d), 1.68 ± 0.29 mfiBeads/Ratio; in assay [5] (length of culture 12 d), 1.02 ± 0.51 mfiBeads/Ratio; in assay [5] (length of culture 14 d) it was 0.99 ± 0.46 mfiBeads/Ratio. This compound yielded a CD11c/71 co-expression in the assay with peritoneal macrophages [3] of 1.52 ± 0.16.
